Patent US5795899A, “Soluble salts of 4-amino-2-(4,4-dimethylimidazolidin-2-on-1-yl) pyrimidine-5-carboxylic acid N-methyl-N-(3-trifluoromethylphenyl)-amide, a process for the preparation thereof, the use thereof as pharmaceuticals and starting materials” (Hoechst Aktiengesellschaft, priority 1992, dated 1998)

Assays:
[1] = tested on: tumor cells (L 1210, A 549, HT 29); assay: Cell proliferation inhibition (MTT assay), overall statement; format: cell-based, mouse and human
Description: (§1) The reduced inhibitory effect on cell proliferation was tested on exponentially growing animal (mouse leukemia cells, L 1210) and human (bronchial carcinoma cells, A 549; colon carcinoma cells, HT 29) tumor cells. This entailed the tumor cells being incubated in RPMI standard medium with various concentrations of the test substances for 72 hours. Cell incubations only in fresh medium served as control. Incubations were set up in quadruplet. […] After incubation for a further 7 to 24 hours, the cell supernatant was carefully removed and the formazan dye in the cells was solubilized by adding DMSO and measured quantitatively by photometry at 492 nm. The ratio of the extinction of the substance incubations to the control incubation was quantified. The coefficient of variation in each incubation series was less than 15%. The following Table 6 indicates the IC50 values (IC50 [μg/ml] is the concentration of the test substance per ml which is necessary for 50% inhibition) from these investigations.

LDL receptor = assay: Uptake of 125I-labeled homologous LDL / functional LDL receptor levels on HepG2 cells; format: cell-based, human; details: FIG. 3
Description: In this test, homologous LDL which had been purified by standard processes was labeled with ^125 I by the iodine monochloride method. Used in this case was the method of Bilheimer which is disclosed in the literature and is a modification of the iodination technique originally developed by McFarlaine (compare Bilheimer, D. W., Eisenberg, S., and Levy, R. L., Biochim. Biophys. Acta, 260, 212 (1972)).
To determine the ^125 I-LDL incorporation, HepG2 cells were preincubated with and without hydrochloride of the compound I for 36 hours and subsequently incubated with iodine-labeled LDL at 37° C. in an incubator for 3 hours.
Subsequently, the cells were washed in the presence of 2% bovine serum albumin, the cells were lyzed with 1 ml of 0.1N NaOH, and the incorporated radioactivity was measured. The specific radioactivity uptake (total radioactivity uptake less the unspecific radioactivity uptake) per mg of protein was then calculated, as generally customary, via a protein determination by the Lowry method, and the radioactivity taken up by the control […] was set equal to 100%.

LDL receptor mRNA = LDL receptor mRNA expression in vivo in rat livers (Northern blot); details: 6 hours after single oral dose of 30 mg/kg, FIG. 1
Description: Liver tissue was removed at the stated time after a single oral dose of 30 mg/kg of the hydrochloride of compound I and was shock-frozen in liquid nitrogen.
The Northern blot technique was used to determine the relative LDL receptor MRNA levels. The LDL receptor MRNA level is increased about 2.5-fold after six hours.
The mRNA was prepared by the method described by Chomczynski, P. and Sacchi, N. in Anal. Biochem. 162, 156 (1987). In the case of organs (such as, for example, liver), the deep-frozen tissue was previously homogenized in a mortar on dry ice, and the mRNA was further concentrated by means of oligo dT by standard methods (compare Sambrook, J., Fritsch, E. F. and Maniatis, T., Molecular Cloning, second edition, Cold Spring Harbor (1989); this collection of methods also includes descriptions of all the other relevant standard processes of molecular biology used here). […] The filters were subsequently exposed on Cronex 4 films (Dupont) in the presence of an intensifying screen at -70° C. overnight or for up to 14 days, and the hybridization signals were quantified from the intensity of blackening of the film using a commercially available laser densitometer. Subsequently, the quotient was determined from the intensity of the LDL receptor band and of the actin band as internal standard to correct for variations in yield. […]

[2] = tested on: LDL receptor mRNA in human hepatocytoma cell line HepG2; assay: LDL receptor mRNA expression on HepG2 cells (Northern blot); format: cell-based; details: FIG. 2
Description: The HepG2 cells were previously incubated in MEM standard medium which contained 10% fetal calf serum with and without hydrochloride of the compound I (10^-6 M) for 16 hours.
Lipoprotein-deficient serum (LPDS) was in this case prepared by ultracentrifugation by a standard process (Goldstein, J. L., Basu, S. K and Brown, M. S., Methods Enzymol. 98, 241 (1983)). The MRNA in the […] was prepared in analogy to the method described above.
The mRNA was prepared by the method described by Chomczynski, P. and Sacchi, N. in Anal. Biochem. 162, 156 (1987). […] The filters were subsequently exposed on Cronex 4 films (Dupont) in the presence of an intensifying screen at -70° C. overnight or for up to 14 days, and the hybridization signals were quantified from the intensity of blackening of the film using a commercially available laser densitometer. Subsequently, the quotient was determined from the intensity of the LDL receptor band and of the actin band as internal standard to correct for variations in yield. […]

[3] = tested on: bronchial carcinoma cells, A 549; assay: MTT assay, inhibition of cell proliferation, A 549; format: cell-based; details: Homo sapiens, A549; 72 hours incubation
Description: as §1

[4] = tested on: carbohydrate-induced hypertriglyceridemia; assay: Inhibition of carbohydrate-induced hypertriglyceridemia; format: in vivo, male Sprague-Dawley rats; details: 1 mg/kg/day
Description: Groups of in each case 10 male Sprague-Dawley rats (supplied by the breeder Mollegard with a weight of 250-280 g) received on each of 4 consecutive days one administration of the compound dissolved in PEG 400 by gavage. In addition, after the 3rd administration and 8 and 24 hours later they received 2.5 g of fructose/kg, likewise by gavage. Moreover, after the 3rd administration of product, 50% strength fructose solution was offered to them as drinking water ad libitum, and the food was withdrawn. Retroorbital removal of blood, from which the serum was obtained for the triglyceride determination and VLDL preparation in the ultracentrifuge (flotation at d=1.006), took place 3 hours after the last product/fructose administration. The food received by the animals from 1 week before the 1st administration and up to the 3rd administration was a diet with 40% casein in the feed meal.
The animals develop, as a result of this treatment, a hypertriglyceridemia which approximately corresponds to Fredrickson phenotype IV in humans. The serum triglycerides of the normal animals increased from 0.54 to 1.1 mmol/l, and the VLDL triglycerides from 0.67 to 1.81.

[5] = tested on: mouse leukemia cells, L 1210; assay: MTT assay, inhibition of cell proliferation, L1210; format: cell-based; details: 72 hours incubation
Description: as §1

CN(C(=O)c1cnc(N2CC(C)(C)NC2=O)nc1N)c1cccc(C(F)(F)F)c1.Cl [Compound I as hydrochloride, 4-amino-2-(4,4-dimethyl-2-oxo-1-imidazolidinyl)pyrimidine-5-carboxylic acid N-methyl-N-(3-trifluoromethylphenyl)amide hydrochloride]
Proliferation inhibition compared with imanixil (HOE 402) / its hydrochloride (in words) [1]: must be given at a considerably higher dose in order to have the same proliferation-inhibiting effect
Functional LDL receptor levels on HepG2 cells (LDL receptor): corresponding increase
Increase in uptake of 125I-labeled homologous LDL (LDL receptor; HepG2, preincubation 36 hours, then 125I-LDL at 37° C. 3 hours): increased by up to two and a half times
Increase in LDL receptor mRNA level in rat liver (LDL receptor mRNA): about 2.5 -fold
Overinduction of LDL receptor mRNA in lipoprotein-deficient serum compared with whole serum ([2]; 10^-6 M, 16 hours): further by the same factor as was observed on stimulation in whole serum
Dependence of LDL receptor mRNA stimulation on cholesterol supply level ([2]; whole serum and lipoprotein-deficient serum): does not depend on the cholesterol "supply level"
IC50 [3]: > 100 µg/mL
Solubility in water (in words): good solubility
1 part by mass dissolves in . . . parts of H2 O (Table 2, Temp. [°C]: hydrochloride 25.0, nitrate 23.5, p-toluenesulfonate 23.2, hydrogen (R,R)-tartrate 24.6, free base 24.8): 1.33 parts of H2 O
Inhibition of the increase in the VLDL triglycerides (in words) [4]: almost one half
IC50 [5]: 13.4 µg/mL
